From publication PMC12196347, “Evaluating Triazole-Substituted Pyrrolopyrimidines as CSF1R Inhibitors” (Molecules, 2025)
Read-outs that look alike come from different tables or passages of the source.

Columns and labels:
CSF1R = target: T1, CSF1R (Homo sapiens, UniProt P07333); assay: CSF1R enzymatic inhibition, TR-FRET-based LANCE Ultra assay; type: biochemical; conditions: single 8-point titrations, ATP concentration 25 µM, read-out: Enz. IC50
T1 sequence (P07333 539-972 limits assumed): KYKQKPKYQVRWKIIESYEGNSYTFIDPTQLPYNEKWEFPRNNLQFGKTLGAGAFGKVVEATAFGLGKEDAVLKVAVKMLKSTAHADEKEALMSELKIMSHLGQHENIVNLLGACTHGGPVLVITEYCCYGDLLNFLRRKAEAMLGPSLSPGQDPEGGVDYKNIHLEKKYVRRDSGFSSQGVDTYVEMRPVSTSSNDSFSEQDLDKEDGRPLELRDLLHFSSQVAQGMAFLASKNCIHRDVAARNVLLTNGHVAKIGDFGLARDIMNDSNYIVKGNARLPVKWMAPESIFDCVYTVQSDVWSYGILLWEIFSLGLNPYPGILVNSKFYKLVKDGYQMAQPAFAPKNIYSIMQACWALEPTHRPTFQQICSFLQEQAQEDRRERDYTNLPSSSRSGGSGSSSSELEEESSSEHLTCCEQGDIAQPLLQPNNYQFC

cKIT kinase = target: T2, cKIT kinase (Homo sapiens, UniProt P10721); assay: KIT inhibition (KD), TR-FRET tracer displacement; type: binding; conditions: kinase tracer 236, anti-GST antibody Eu-conjugate, read-out: KIT enz. KD
T2 construct: purchased Carna Biosciences

[1] = tested on: KIT-positive cell line GIST-T1; assay: GIST-T1 CellTiter-Glo cell viability assay; type: cell-based; conditions: Homo sapiens, GISTT1; cellular proliferation, GIST-T1, 72 h
[2] = Human liver microsome intrinsic clearance, Phase I; type: in vitro ADME; conditions: in vitro intrinsic clearance
MDCK permeability assay = type: in vitro ADME, canine; conditions: dog, MDCK cell monolayer
[3] = Mouse plasma protein binding; type: in vitro ADME; conditions: fraction bound, read-out: PPB (converted)
ABL1 = target: T3, ABL1 (Homo sapiens, UniProt P00519); assay: Kinase panel profiling: ABL1; type: biochemical; conditions: ATP equal to KM
T3 construct: purchased Thermo Fisher Scientific (Invitrogen) SelectScreen (Z'-LYTE)

AKT1 (PKB alpha) = target: T4, AKT1 (PKB alpha) (Homo sapiens, UniProt P31749); assay: Kinase panel profiling: AKT1; type: biochemical; conditions: ATP equal to KM
T4 construct: purchased Thermo Fisher Scientific (Invitrogen) SelectScreen (Z'-LYTE)

ALK = target: T5, ALK (Homo sapiens, UniProt Q9UM73); assay: Kinase panel profiling: ALK; type: biochemical; conditions: ATP equal to KM
T5 construct: purchased Thermo Fisher Scientific (Invitrogen) SelectScreen (Z'-LYTE)

AURKA (Aurora A) = target: T6, AURKA (Aurora A) (Homo sapiens, UniProt O14965); assay: Kinase panel profiling: AURKA; type: biochemical; conditions: ATP equal to KM
T6 construct: purchased Thermo Fisher Scientific (Invitrogen) SelectScreen (Z'-LYTE)
T6 sequence (O14965 1-403): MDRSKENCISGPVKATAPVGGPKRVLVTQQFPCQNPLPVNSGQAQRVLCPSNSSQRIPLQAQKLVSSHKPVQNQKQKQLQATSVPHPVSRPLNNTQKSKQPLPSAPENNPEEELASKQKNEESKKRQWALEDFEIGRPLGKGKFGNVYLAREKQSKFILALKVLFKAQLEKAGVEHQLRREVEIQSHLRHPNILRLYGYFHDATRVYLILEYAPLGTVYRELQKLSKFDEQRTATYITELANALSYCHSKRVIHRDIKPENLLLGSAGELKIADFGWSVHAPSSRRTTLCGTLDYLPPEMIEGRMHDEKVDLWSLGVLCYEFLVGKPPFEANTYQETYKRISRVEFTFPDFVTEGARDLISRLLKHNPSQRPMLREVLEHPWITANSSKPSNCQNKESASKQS

CDK1/cyclin B = target: T7, CDK1/cyclin B (Homo sapiens, UniProt P06493); assay: Kinase panel profiling: CDK1/cyclin B; type: biochemical; conditions: ATP equal to KM
T7 construct: purchased Thermo Fisher Scientific (Invitrogen) SelectScreen (Z'-LYTE)

CSF1R (FMS) = target: T8, CSF1R (FMS) (Homo sapiens, UniProt P07333); assay: Kinase panel profiling: CSF1R; type: biochemical; conditions: ATP equal to KM
T8 construct: purchased Thermo Fisher Scientific (Invitrogen) SelectScreen (Z'-LYTE)

DYRK1A = target: T9, DYRK1A (Homo sapiens, UniProt Q13627); assay: Kinase panel profiling: DYRK1A; type: biochemical; conditions: ATP equal to KM
T9 construct: purchased Thermo Fisher Scientific (Invitrogen) SelectScreen (Z'-LYTE)

EGFR (ErbB1) = target: T10, EGFR (ErbB1) (Homo sapiens, UniProt P00533); assay: Kinase panel profiling: EGFR; type: biochemical; conditions: ATP equal to KM
T10 construct: purchased Thermo Fisher Scientific (Invitrogen) SelectScreen (Z'-LYTE)

EPHA2 = target: T11, EPHA2 (Homo sapiens, UniProt P29317); assay: Kinase panel profiling: EPHA2; type: biochemical; conditions: ATP equal to KM
T11 construct: purchased Thermo Fisher Scientific (Invitrogen) SelectScreen (Z'-LYTE)

FLT1 (VEGFR1) = target: T12, FLT1 (VEGFR1) (Homo sapiens, UniProt P17948); assay: Kinase panel profiling: FLT1; type: biochemical; conditions: ATP equal to KM
T12 construct: purchased Thermo Fisher Scientific (Invitrogen) SelectScreen (Z'-LYTE)

FYN = target: T13, FYN (Homo sapiens, UniProt P06241); assay: Kinase panel profiling: FYN; type: biochemical; conditions: ATP equal to KM
T13 construct: purchased Thermo Fisher Scientific (Invitrogen) SelectScreen (Z'-LYTE)

JAK1 = target: T14, JAK1 (Homo sapiens, UniProt P23458); assay: Kinase panel profiling: JAK1; type: biochemical; conditions: ATP equal to KM
T14 construct: purchased Thermo Fisher Scientific (Invitrogen) SelectScreen (Z'-LYTE)

LYN A = target: T15, LYN A (Homo sapiens, UniProt P07948); assay: Kinase panel profiling: LYN A; type: biochemical; conditions: ATP equal to KM
T15 construct: purchased Thermo Fisher Scientific (Invitrogen) SelectScreen (Z'-LYTE)

MET (cMet) = target: T16, MET (cMet) (Homo sapiens, UniProt P08581); assay: Kinase panel profiling: MET; type: biochemical; conditions: ATP equal to KM
T16 construct: purchased Thermo Fisher Scientific (Invitrogen) SelectScreen (Z'-LYTE)

MKNK1 (MNK1) = target: T17, MKNK1 (MNK1) (Homo sapiens, UniProt Q9BUB5); assay: Kinase panel profiling: MKNK1; type: biochemical; conditions: ATP equal to KM
T17 construct: purchased Thermo Fisher Scientific (Invitrogen) SelectScreen (Z'-LYTE)

SRC = SRC (Homo sapiens, UniProt P12931); assay: Kinase panel profiling: SRC; type: biochemical; conditions: ATP equal to KM
TEK (Tie2) = TEK (Tie2) (Homo sapiens, UniProt Q02763); assay: Kinase panel profiling: TEK; type: biochemical; conditions: ATP equal to KM
[4] = 1000 nM test concentration, read-out: Average inhibition (%)
[5] = 1000 nM, first data point, read-out: Inhibition (%)
[6] = 1000 nM, second data point, read-out: Inhibition (%)

T13 sequence (P06241 whole entry): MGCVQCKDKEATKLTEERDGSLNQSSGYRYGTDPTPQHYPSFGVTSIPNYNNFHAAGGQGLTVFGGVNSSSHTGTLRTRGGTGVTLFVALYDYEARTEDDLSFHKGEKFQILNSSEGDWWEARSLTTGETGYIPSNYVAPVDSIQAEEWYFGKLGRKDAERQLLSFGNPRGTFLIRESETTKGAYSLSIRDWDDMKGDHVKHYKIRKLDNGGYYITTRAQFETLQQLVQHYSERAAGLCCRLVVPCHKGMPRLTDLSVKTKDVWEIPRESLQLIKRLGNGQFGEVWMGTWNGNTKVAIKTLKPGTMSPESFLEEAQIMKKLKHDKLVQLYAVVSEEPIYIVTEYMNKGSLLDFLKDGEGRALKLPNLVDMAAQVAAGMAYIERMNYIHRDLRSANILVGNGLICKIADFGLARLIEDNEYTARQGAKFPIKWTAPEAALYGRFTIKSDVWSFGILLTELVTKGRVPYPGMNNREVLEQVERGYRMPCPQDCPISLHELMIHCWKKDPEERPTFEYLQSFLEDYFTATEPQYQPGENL
T12 sequence (P17948 27-1338): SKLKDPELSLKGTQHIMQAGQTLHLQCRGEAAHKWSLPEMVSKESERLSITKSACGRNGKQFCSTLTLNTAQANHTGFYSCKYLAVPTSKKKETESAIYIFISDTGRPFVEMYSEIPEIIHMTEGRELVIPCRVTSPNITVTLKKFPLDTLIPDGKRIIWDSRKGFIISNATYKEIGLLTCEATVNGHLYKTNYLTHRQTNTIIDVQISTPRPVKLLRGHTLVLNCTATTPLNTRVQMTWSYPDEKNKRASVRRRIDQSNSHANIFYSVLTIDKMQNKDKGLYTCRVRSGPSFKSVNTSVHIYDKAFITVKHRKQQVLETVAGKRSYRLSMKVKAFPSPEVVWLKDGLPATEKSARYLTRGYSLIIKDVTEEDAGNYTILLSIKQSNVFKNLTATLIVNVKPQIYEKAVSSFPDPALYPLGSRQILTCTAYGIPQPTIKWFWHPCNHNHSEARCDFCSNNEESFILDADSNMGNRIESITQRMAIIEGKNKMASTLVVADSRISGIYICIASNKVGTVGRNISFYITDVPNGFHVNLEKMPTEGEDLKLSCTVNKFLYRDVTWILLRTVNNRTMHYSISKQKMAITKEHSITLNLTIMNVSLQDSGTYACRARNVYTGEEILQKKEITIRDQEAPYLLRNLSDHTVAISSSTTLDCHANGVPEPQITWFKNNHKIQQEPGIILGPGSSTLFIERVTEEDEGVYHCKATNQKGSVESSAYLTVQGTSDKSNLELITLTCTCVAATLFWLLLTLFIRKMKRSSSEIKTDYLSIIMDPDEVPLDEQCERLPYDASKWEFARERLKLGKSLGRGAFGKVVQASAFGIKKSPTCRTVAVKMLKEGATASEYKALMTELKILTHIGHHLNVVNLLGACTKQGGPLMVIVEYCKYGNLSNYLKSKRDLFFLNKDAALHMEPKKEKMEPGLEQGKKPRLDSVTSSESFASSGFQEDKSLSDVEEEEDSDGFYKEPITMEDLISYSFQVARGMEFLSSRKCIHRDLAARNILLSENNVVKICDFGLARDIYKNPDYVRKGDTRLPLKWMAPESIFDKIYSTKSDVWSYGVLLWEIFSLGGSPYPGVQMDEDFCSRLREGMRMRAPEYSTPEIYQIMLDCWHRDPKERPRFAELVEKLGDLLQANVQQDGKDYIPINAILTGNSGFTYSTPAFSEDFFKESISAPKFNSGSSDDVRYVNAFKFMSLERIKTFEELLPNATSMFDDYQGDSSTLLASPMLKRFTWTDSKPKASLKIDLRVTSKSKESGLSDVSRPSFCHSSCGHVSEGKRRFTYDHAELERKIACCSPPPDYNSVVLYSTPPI
Sequence of SRC (P12931 whole entry): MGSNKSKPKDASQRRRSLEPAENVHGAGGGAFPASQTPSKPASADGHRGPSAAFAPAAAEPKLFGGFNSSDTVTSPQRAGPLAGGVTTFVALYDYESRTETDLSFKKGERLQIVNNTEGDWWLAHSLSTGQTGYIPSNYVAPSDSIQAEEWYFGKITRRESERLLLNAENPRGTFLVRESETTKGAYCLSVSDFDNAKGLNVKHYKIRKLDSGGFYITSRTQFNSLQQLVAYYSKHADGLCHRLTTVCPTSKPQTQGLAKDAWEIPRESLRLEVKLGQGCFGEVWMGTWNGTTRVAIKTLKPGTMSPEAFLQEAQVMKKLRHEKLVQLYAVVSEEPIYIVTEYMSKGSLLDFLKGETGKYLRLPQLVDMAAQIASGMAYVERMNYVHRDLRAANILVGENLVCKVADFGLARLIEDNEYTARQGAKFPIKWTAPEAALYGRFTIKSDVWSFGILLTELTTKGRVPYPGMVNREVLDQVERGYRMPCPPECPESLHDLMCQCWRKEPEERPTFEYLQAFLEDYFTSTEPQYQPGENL
T17 sequence (Q9BUB5 whole entry): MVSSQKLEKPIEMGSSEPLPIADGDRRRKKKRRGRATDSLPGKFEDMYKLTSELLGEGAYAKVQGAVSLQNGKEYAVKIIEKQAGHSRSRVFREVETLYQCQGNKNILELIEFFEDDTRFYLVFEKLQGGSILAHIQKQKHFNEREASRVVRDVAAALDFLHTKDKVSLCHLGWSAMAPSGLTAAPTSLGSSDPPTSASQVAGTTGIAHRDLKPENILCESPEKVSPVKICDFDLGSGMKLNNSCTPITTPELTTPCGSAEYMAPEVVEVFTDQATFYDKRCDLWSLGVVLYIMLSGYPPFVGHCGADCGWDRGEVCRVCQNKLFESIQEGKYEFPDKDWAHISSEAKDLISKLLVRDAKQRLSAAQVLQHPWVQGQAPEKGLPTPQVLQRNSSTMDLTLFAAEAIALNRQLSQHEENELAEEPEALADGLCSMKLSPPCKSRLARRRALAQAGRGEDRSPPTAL
T11 sequence (P29317 24-976): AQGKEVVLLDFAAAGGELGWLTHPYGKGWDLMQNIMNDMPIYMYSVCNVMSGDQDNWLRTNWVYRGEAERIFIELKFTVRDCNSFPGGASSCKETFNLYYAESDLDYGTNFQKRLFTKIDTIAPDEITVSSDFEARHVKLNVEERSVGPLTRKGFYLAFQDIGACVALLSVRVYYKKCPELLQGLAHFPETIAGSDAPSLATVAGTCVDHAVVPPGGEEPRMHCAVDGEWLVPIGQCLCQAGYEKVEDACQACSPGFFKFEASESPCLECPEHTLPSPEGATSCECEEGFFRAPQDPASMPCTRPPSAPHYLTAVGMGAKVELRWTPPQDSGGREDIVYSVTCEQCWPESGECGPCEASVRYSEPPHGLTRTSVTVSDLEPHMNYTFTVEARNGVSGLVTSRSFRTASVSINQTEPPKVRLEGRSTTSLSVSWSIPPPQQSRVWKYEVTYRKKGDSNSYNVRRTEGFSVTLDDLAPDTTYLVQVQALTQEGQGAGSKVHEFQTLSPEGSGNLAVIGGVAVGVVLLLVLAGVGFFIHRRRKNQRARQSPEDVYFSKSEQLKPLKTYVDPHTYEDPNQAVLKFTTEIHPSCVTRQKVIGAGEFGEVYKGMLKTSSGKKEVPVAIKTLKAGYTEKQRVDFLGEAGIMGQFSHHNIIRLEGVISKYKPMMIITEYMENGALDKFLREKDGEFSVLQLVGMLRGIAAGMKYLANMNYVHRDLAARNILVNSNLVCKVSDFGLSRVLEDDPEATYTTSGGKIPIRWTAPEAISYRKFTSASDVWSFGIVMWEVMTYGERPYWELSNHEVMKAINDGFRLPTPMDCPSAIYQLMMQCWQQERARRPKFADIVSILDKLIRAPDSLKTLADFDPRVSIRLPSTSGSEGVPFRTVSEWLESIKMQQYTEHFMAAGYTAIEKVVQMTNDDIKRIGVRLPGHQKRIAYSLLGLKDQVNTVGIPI
T4 sequence (P31749 whole entry): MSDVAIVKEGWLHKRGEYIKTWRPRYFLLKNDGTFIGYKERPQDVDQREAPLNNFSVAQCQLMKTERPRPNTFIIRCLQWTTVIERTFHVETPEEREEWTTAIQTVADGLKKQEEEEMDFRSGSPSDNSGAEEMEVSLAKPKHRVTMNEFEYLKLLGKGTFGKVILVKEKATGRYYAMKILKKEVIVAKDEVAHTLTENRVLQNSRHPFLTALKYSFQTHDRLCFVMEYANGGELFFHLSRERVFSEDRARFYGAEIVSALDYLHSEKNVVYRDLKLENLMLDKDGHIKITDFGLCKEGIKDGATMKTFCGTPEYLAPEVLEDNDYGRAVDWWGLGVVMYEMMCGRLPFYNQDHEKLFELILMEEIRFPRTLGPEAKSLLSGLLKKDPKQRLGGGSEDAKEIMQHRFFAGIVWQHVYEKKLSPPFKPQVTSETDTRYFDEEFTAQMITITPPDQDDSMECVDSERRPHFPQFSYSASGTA
T7 sequence (P06493 whole entry): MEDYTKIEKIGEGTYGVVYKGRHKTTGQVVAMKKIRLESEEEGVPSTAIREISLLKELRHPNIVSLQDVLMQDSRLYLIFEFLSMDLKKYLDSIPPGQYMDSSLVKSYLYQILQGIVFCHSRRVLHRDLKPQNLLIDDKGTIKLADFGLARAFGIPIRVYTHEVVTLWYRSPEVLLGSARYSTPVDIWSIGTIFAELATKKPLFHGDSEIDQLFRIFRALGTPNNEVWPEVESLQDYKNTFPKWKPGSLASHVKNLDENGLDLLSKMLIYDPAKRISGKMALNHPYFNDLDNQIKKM
T7 sequence (P14635 whole entry partner): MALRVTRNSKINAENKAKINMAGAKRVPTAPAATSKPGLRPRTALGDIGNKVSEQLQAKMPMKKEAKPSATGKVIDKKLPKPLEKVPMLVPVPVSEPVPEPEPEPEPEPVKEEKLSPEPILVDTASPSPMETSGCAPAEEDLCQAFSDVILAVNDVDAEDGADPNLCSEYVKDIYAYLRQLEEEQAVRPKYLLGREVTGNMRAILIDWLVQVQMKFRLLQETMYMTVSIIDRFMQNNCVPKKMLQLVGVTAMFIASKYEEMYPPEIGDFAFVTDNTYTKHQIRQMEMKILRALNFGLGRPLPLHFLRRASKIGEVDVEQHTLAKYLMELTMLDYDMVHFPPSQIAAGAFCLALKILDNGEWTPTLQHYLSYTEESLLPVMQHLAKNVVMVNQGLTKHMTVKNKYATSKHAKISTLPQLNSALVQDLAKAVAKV

IC50 (CSF1R): < 1 nM
Kd (cKIT kinase): 793 nM
HLM [2]: 53.7 µL/min/mg
Papp A→B (MDCK permeability assay; A-B direction): 1.27 ×10⁻⁶ cm/s
Papp B→A (MDCK permeability assay; B-A direction): 3.18 ×10⁻⁶ cm/s
efflux ratio (MDCK permeability assay; read-out: Ratio Papp B > A/Papp A > B): 2.5
fraction unbound [3]: < 0.01
inhibition at 1 µM (ABL1; [4]): 99%
inhibition at 1 µM (ABL1; [5]): 99%
inhibition at 1 µM (AKT1 (PKB alpha); [4]): 2%
inhibition at 1 µM (AKT1 (PKB alpha); [5]): 3%
inhibition at 1 µM (AKT1 (PKB alpha); [6]): 1%
inhibition at 1 µM (ALK; [4]): 24%
inhibition at 1 µM (ALK; [5]): 24%
inhibition at 1 µM (ALK; [6]): 25%
inhibition at 1 µM (AURKA (Aurora A); [4]): 38%
inhibition at 1 µM (AURKA (Aurora A); [5]): 35%
inhibition at 1 µM (AURKA (Aurora A); [6]): 40%
inhibition at 1 µM (CDK1/cyclin B; [4]): 27%
inhibition at 1 µM (CDK1/cyclin B; [5]): 24%
inhibition at 1 µM (CDK1/cyclin B; [6]): 29%
inhibition at 1 µM (CSF1R (FMS); [4]): 99%
inhibition at 1 µM (CSF1R (FMS); [5]): 99%
inhibition at 1 µM (DYRK1A; [4]): 5%
inhibition at 1 µM (DYRK1A; [5]): 5%
inhibition at 1 µM (DYRK1A; [6]): 4%
inhibition at 1 µM (EGFR (ErbB1); [4]): 85%
inhibition at 1 µM (EGFR (ErbB1); [5]): 84%
inhibition at 1 µM (EGFR (ErbB1); [6]): 87%
inhibition at 1 µM (EPHA2; [4]): 89%
inhibition at 1 µM (EPHA2; [5]): 88%
inhibition at 1 µM (EPHA2; [6]): 91%
inhibition at 1 µM (FLT1 (VEGFR1); [4]): 31%
inhibition at 1 µM (FLT1 (VEGFR1); [5]): 32%
inhibition at 1 µM (FLT1 (VEGFR1); [6]): 30%
inhibition at 1 µM (FYN; [4]): 76%
inhibition at 1 µM (FYN; [5]): 75%
inhibition at 1 µM (FYN; [6]): 77%
inhibition at 1 µM (JAK1; [4]): 9%
inhibition at 1 µM (JAK1; [5]): 22%
inhibition at 1 µM (JAK1; [6]): -3%
inhibition at 1 µM (LYN A; [4]): 66%
inhibition at 1 µM (LYN A; [5]): 66%
inhibition at 1 µM (MET (cMet); [4]): 13%
inhibition at 1 µM (MET (cMet); [5]): 10%
inhibition at 1 µM (MET (cMet); [6]): 16%
inhibition at 1 µM (MKNK1 (MNK1); [4]): 2%
inhibition at 1 µM (MKNK1 (MNK1); [5]): 3%
inhibition at 1 µM (MKNK1 (MNK1); [6]): 1%
inhibition at 1 µM (SRC; [4]): 96%
inhibition at 1 µM (SRC; [5]): 96%
inhibition at 1 µM (SRC; [6]): 95%
inhibition at 1 µM (TEK (Tie2); [4]): 42%
inhibition at 1 µM (TEK (Tie2); [5]): 44%
inhibition at 1 µM (TEK (Tie2); [6]): 40%
SMILES: Cc1cccc(CN(C)c2ncnc3[nH]c(-c4cn(Cc5cccnc5)nn4)cc23)c1 [Compound 27a, N-Methyl-N-(3-methylbenzyl)-6-(1-(pyridin-3-ylmethyl)-1H-1,2,3-triazol-4-yl)-7H-pyrrolo[2,3-d]pyrimidin-4-amine]
IC50 [1]: > 30000 nM
